The source of these data is patent US20030008309A1, “Microarrays and methods for evaluating activity of compounds having estrogen-like activity” (National Institute of Advanced Industrial Science and …, priority 2000, published 2003).

This experiment has as its system MCF-7 cells. The experiment can be described thus: Microarray evaluation of estrogen-like activity (expression levels of estrogen-responsive genes/ESTs, Cy3/Cy5) in MCF-7 cells.

For `Clc1cc2c(cc1Cl)Oc1cc(Cl)c(Cl)cc1O2` [dioxin, 2,3,7,8-tetrachlorodibenzo-p-dioxin], the “evaluation value considering weighting factor (K)” value amounted to 32.90. Also, for the setting “10 nM treatment, n=1 to 203, independently determined”, the “Σ(E(example)n), summation value of expression levels” value turned out to be 207.49. Further, the “evaluation value = Σ[|log{BDE(A)n/BDE(Estrogen)n}|], n=1 to 203” value (listed as example 2) turned out to be 46.19.
